Drawing on ChEMBL document CHEMBL1140615, “Predicting anti-HIV activity of PETT derivatives: CoMFA approach” (2007), this text covers pED50 and Log10ED50 for 69 molecules.

Values joined by “and” are separate entries in the source; they are usually repeats but may differ in a detail not shown here. Equal entries are not always repeated.

This experiment relates to Human immunodeficiency virus 1. Nature of the experiment: Antiviral activity against HIV1 in MT4 cells assessed as reduction of virus-induced cytopathicity by XTT assay. Type of experiment: functional. For orientation: Cytopathic effects are the visible damage that an infection or toxin causes in cultured cells.
Regarding `N#Cc1csc(NC(=S)NCCc2ccccc2)n1`, the pED50 came out at 0.6989.

As to `CC(C)Oc1cccc(CCNC(=S)Nc2nccs2)c1`, the pED50 was 0.3979.

As for `CCOc1ccc(OCC)c(CCNC(=S)Nc2ccc(Br)cn2)c1`, the pED50 worked out at 1.7447.

Regarding `CCOc1ccc(F)c(CCNC(=S)Nc2ccc(Br)cn2)c1Cl` [THIOUREA, N-(5-BROMO-2-PYRIDINYL)-N'-(2-(2-CHLORO-3-ETHOXY-6-FLUOROPHENYL)ETHYL)-], the pED50 was 2.1549.

`S=C(NCCc1ccccn1)Nc1ccc(Br)cn1` [TROVIRDINE]: the pED50 came to 1.6989.

In the case of `S=C(NCCc1ccccc1)Nc1nccs1`, the Log10ED50 worked out at 0.1139.

On to `FC(F)(F)c1csc(NC(=S)NCCc2ccccc2)n1`, for which the pED50 amounted to 0.301.

For `CCCc1csc(NC(=S)NCCc2ccccc2)n1`, the Log10ED50 is listed as 0.2041.

Consider `CCc1csc(NC(=S)NCCc2c(F)cccc2F)n1`, for which the pED50 was 1.0969.

`CCOc1ccc(F)c(CCNC(=S)Nc2ccc(Br)cn2)c1F`: the pED50 is on record as 2.2218.

As to `COc1ccc(OC)c(CCNC(=S)Nc2ccc(Cl)cn2)c1`, the pED50 is 1.3979.

On to `N#Cc1ccc(F)c(CC/N=C(\S)Nc2ccc(Cl)cn2)c1F`, for which the pED50 is given as 2.2218.

Take `CCc1csc(NC(=S)NCCc2ccccc2)n1`: the pED50 is reported as 0.1549.

Regarding `CC(C)c1csc(NC(=S)NCCc2ccccc2)n1`, the Log10ED50 is 0.1139.

On to `CCOc1cccc(F)c1CCNC(=S)Nc1ccc(Br)cn1`, for which the pED50 is 1.886 and 1.6989.

As for `Cc1ccc(NC(=S)NCCc2ccccc2)nc1`, the pED50 was determined as 0.8239.

As for `COc1ccc(Br)cc1CCNC(=S)Nc1nccs1`, the pED50 was found to be 1.301.

Consider `COc1ccc(OC)c(CCNC(=S)Nc2nccs2)c1`, for which the pED50 worked out at 0.3979.

Take `S=C(NCCc1ccccn1)Nc1nccs1`: the Log10ED50 was determined as 0.1139.

On to `CN(C)C(=O)c1ccc(F)c(CCNC(=S)Nc2ccc(Br)cn2)c1F`, for which the pED50 is reported as 1.0969.

`S=C(NCCc1ccccc1)Nc1nncs1`: the Log10ED50 is 0.7243.

Turning to `COc1ccc(F)c(F)c1CC/N=C(\S)Nc1ccc(Br)cn1`, the pED50 is on record as 2.1589.

For the molecule `COc1ccc(F)c(CCNC(=S)Nc2ccc(Cl)cn2)c1OC`, the pED50 was 1.9208.

Consider `Fc1ccccc1CCNC(=S)Nc1nccs1`, for which the pED50 is reported as 1.

`CCOc1ccc(F)c(CCNC(=S)Nc2ccc(C#N)cn2)c1Cl`: the pED50 is given as 2.5229.

As for `CCOc1cccc(F)c1CCNC(=S)Nc1ccc(C)cn1`, the pED50 is 0.6989.

With `S=C(NCCc1ccco1)Nc1nccs1`, the Log10ED50 is given as 0.716.

As for `CCOc1cccc(F)c1CCNC(=S)Nc1nccs1`, the pED50 turned out to be 0.6989.

With `Cc1ccccc1CCNC(=S)Nc1nccs1`, the pED50 turned out to be 0.0227.

For `S=C(NCCc1ccccc1Cl)Nc1nccs1`, the pED50 was 0.3979.

Take `CCCCc1csc(NC(=S)NCCc2ccccc2)n1`: the Log10ED50 was determined as 0.1139.

With `Cc1ccc(NC(=S)NCCc2c(F)cccc2F)nc1`, the pED50 came out at 2.

With `CCOc1ccc(F)c(F)c1CCNC(=S)Nc1ccc(Br)cn1`, the pED50 is listed as 2.1549.

In the case of `CCCOc1cccc(CCNC(=S)Nc2nccs2)c1`, the Log10ED50 worked out at 0.3424.

For the molecule `CCOC(=O)c1csc(NC(=S)NCCc2ccccc2)n1`, the pED50 was determined as 0.301.

For the molecule `CCOc1cccc(CCNC(=S)Nc2nccs2)c1`, the pED50 was 0.8239.

As for `S=C(NCCc1ccccc1)Nc1ccc(Br)cn1`, the pED50 is listed as 1.301.

`N#Cc1ccc(F)c(CCNC(=S)Nc2ccc(Br)cn2)c1F`: the pED50 stood at 1.886.

Turning to `S=C(NCCc1ccccc1)Nc1ncc(Cl)s1`, the Log10ED50 was determined as 0.4314.

As to `CCOc1ccc(F)c(CCNC(=S)Nc2ccc(Cl)cn2)c1Cl`, the pED50 is 2.0969.

Consider `CN(C)c1ccc(F)c(CCNC(=S)Nc2ccc(Cl)cn2)c1F`, for which the pED50 came to 1.3979.

Consider `Cc1ccc(NC(=S)NCCc2ccccn2)nc1`, for which the pED50 was 0.5228.

For the molecule `CCOc1ccc(OC)c(CCNC(=S)Nc2ccc(Cl)cn2)c1F`, the pED50 is 2.301.

For `CCOc1ccc(F)c(CCNC(=S)Nc2ccc(I)cn2)c1Cl`, the pED50 is recorded as 1.8239.

`COCc1ccc(F)c(CCNC(=S)Nc2ccc(Br)cn2)c1F`: the pED50 is recorded as 2.2218.

Take `Cn1cccc1CNC(=S)Nc1ccc(C#N)cn1`: the pED50 was 0.959.

For `COc1ccc(F)c(CCNC(=S)Nc2ccc(Br)cn2)c1F`, the pED50 was 1.8239.

Consider `CCOc1c(Cl)cc(F)c(CCNC(=S)Nc2ccc(Br)cn2)c1Cl`, for which the pED50 stood at 1.886.

In the case of `N#Cc1csc(NC(=S)NCCc2c(F)cccc2F)n1`, the pED50 stood at 1.5229.

`COc1cccc(OC)c1CCNC(=S)Nc1nccs1`: the pED50 came to 1.0457.

Turning to `COc1ccc(OC)c(CCNC(=S)Nc2ccc(Cl)cn2)c1F`, the pED50 came to 2.6989.

On to `S=C(NCCc1cccnc1)Nc1nccs1`, for which the Log10ED50 was 0.8062.

Consider `COc1ccccc1CCNC(=S)Nc1nccs1`, for which the pED50 amounted to 0.3979.

As to `Fc1cccc(CCNC(=S)Nc2nccs2)c1`, the pED50 is reported as 0.6021.

As for `S=C(NCCc1cccc(Oc2ccccc2)c1)Nc1nccs1`, the Log10ED50 turned out to be 0.4471.

On to `COc1cccc(F)c1CCNC(=S)Nc1nccs1`, for which the pED50 worked out at 0.5229.

As to `Cc1csc(NC(=S)NCCc2ccccc2)n1`, the pED50 was 0.3979.

For the molecule `O=[N+]([O-])c1ccccc1CCNC(=S)Nc1nccs1`, the Log10ED50 is 0.0414.

Consider `Cn1cccc1CNC(=S)Nc1ccc(Cl)cn1`, for which the pED50 came to 0.602.

In the case of `Fc1ccc(CCNC(=S)Nc2nccs2)cc1`, the Log10ED50 amounted to 0.5185.

Consider `COc1ccc(CCNC(=S)Nc2nccs2)cc1`, for which the Log10ED50 is recorded as 0.7404.

For the molecule `Fc1cccc(F)c1CC/N=C(\S)Nc1ccc(Br)cn1`, the pED50 was found to be 2.

With `Fc1cccc(Cl)c1CCNC(=S)Nc1nccs1`, the pED50 was determined as 1.301.

Take `Oc1ccccc1CCNC(=S)Nc1nccs1`: the Log10ED50 came out at 0.602.

Consider `Fc1cccc(F)c1CCNC(=S)Nc1nccs1`, for which the pED50 is recorded as 1.6989.

Take `COc1cccc(CCNC(=S)Nc2nccs2)c1`: the pED50 worked out at 0.2218.

`S=C(NCCc1ccccc1)Nc1ccccn1`: the pED50 is recorded as 0.6989.

`CN(C)c1ccc(F)c(CCNC(=S)Nc2ccc(Br)cn2)c1F`: the pED50 is 1.7447 and 1.3979.

With `CC(=O)NCc1ccc(F)c(CCNC(=S)Nc2ccc(Br)cn2)c1F`, the pED50 was determined as 0.0457.
